Results from patent US10857201B2, “NNIF and nNIF-related peptides and related methods” (UNIVERSITY OF UTAH RESEARCH FOUNDATION, priority 2016, dated 2020).
“Also recorded” adds a separate entry of the source.

Tests used:
[1] = test system: PMN chemotaxis; experiment: IL-8 induced chemotaxis, modified Boyden chamber; assay type: cell-based, human; conditions: IL-8 2 ng/mL, peptides 1 nM
Description: FIG. 6D is a graph depicting chemotaxis in response to IL-8 (2 ng/mL) that was examined in a Boyden chamber assay. The dashed line indicates the response to IL-8 alone arbitrarily set at 1.
Chemotaxis by PMNs isolated from healthy adult donors was assessed using a modified Boyden chamber assay ± a 1 hour pre-incubation with nNIF (1 nM), CRISPP (1 nM), or CRISPP-SCR (1 nM). Recombinant human IL-8 (2 ng/mL) was used as the chemoattractant. Chemotaxis through a 5 micron filter was determined by counting PMNs in 10 randomly selected high-power fields as previously described (see Hill H R, et al., Lancet. 1974; 2 (7881):617-9). In separate experiments, nNIF, CRISPP, or CRISPP-SCR (all at 1 nM) were evaluated for chemoattractant activity using the same system.
Without being bound by any specific theory, it was hypothesized that placentally expressed HTRA1, a serine protease, regulates the formation of NET-inhibitory peptides through cleavage of AAT. To test this hypothesis, term and preterm placenta were assessed for HTRA1 expression via western blotting. HTRA1 and AAT plasma expression from term and preterm infants and adults were determined by ELISA. […] Carboxy-terminus fragments of AAT were detected using western blotting and mass spectrometry. […] Reactive oxygen species were assessed using flow cytometry, chemotaxis using a modified Boyden chamber assay, and bacterial killing using E. coli.

[2] = test system: nuclear histone H3 citrullination; experiment: Histone H3 citrullination in PMA-activated neutrophils (immunocytochemistry); assay type: cell-based, human; conditions: PMA 20 nM, 15 minutes; peptides 1 nM, Cl-amidine 10 μM
Text: Green fluorescence=citrullinated-histone H3, magenta fluorescence=nuclear DNA (60× magnification; scale bar=20 μm). The right panel depicts Histone H3 citrullination that was quantified using IMAGEJ™ software (mean citrullinated-histone H3 pixel area per cell±SEM) (n=3). One way ANOVA with Tukey's post hoc testing, *P<0.05.
Imaging was accomplished via confocal microscopy using a FV1000 IX81 confocal microscope and FLUOVIEW™ software (OLYMPUS™). Semi-quantitation was accomplished using IMAGEJ™ software (NIH) to determine the average citrullinated histone H3 content per cell.

[3] = target: T1, neutrophil elastase (NE) (Homo sapiens, UniProt P08246); experiment: Neutrophil elastase activity assay; assay type: biochemical; conditions: in vitro; (MeOSuc)-AAPV-(pNA) 160 μM, 3 hours, 37° C., and additional assays
T1 construct: purchased SIGMA-ALDRICH
T1 sequence (P08246 30-267): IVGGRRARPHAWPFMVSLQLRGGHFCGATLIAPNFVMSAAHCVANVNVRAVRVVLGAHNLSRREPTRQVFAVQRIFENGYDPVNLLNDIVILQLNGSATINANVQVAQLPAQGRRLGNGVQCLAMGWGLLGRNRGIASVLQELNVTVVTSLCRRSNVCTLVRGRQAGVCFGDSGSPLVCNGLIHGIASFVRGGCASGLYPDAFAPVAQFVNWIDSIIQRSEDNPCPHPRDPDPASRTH
Description: FIG. 12B depicts NE enzyme activity that was examined by cleavage of the synthetic substrate (MeOSuc)-AAPV-(pNA) to (MeOSuc)-AAPV and (pNA) as products detected by liquid chromatography and chromatogram peak identification by mass spectroscopy. (MeOSuc)-AAPV-(pNA) (160 μm) was incubated with NE (2 mU), sivelestat (160 μm), or NE and sivelestat (left panel) or with NE (2 mU), nNIF ([…]), or NE and nNIF (right panel) for 3 hours at 37° C. Chromatograms are offset on the X and Y axes for ease of comparison. In the presence of NE alone, the (MeOSvc)-AAPV-(pNA) peak was almost completely eliminated and (MeOSvc)-AAPV and (pNA) peaks were generated. […] In contrast, it was not inhibited by nNIF.
Synthetic fluorogenic substrate of NE, (MeOSuc)-AAPV-(pNA) (160 μM), was incubated with bioactive NE (500 nM)±the NE inhibitor, sivelestat (160 μM) or nNIF (50 nM), for 3 hours at 37° C. The reactions were quenched with 5% glacial acetic acid and centrifuged at 14,000 rpm for 5 minutes. Chromatograms were obtained using an AGILENT™ 1100 Series HPLC and a PHENOMENEX® 5 μm C18 LUNA® column (100 Å, 4.6×150 mm) over a 30 minute 10% to 90% B gradient (Buffer A 0.1% TFA in H2O, Buffer B 0.1% TFA in ACN). Mass spectra were obtained for secondary validation of the reaction products using an API® 3500 triple quadrupole mass spectrometer. Chromatograms were offset on both the X and Y axes (by 0.5 minutes and 0.1 A214, respectively) for greater visibility.

[4] = test system: C57BL/6 mice subjected to CLP; experiment: Mouse model of polymicrobial sepsis, cecal ligation and puncture (CLP); conditions: 10 mg/kg i.p. 1 hour before and 6 hours after, versus nNIF-SCR
Description: FIG. 9B is a graph depicting C57BL/6 mice that were subjected to cecal ligation and puncture (CLP). nNIF or nNIF-SCR (10 mg/kg i.p.) was given 1 hour before and 6 hours after surgery (n≥7 in each group). Mice subjected to sham surgery were studied in parallel (n=3 in each group). Clinical illness severity scores (see Araujo C V, et al., Shock. 2016; 45 (4):393-403) were determined at 24 hours.
C57BL/6 mice were anaesthetized with ketamine/xylazine (100 mg/kg and 10 mg/kg, i.p; respectively), and cecal ligation and puncture (CLP) was performed as previously described (see Araujo C V, et al., Shock. 2016; 45 (4):393-403). nNIF (10 mg/kg) or nNIF-SCR (10 mg/kg) i.p. was given 1 hour prior to and 6 hours after CLP surgery. The animals received subcutaneous sterile isotonic saline (1 mL) for fluid resuscitation immediately after the surgery. Sham-operated mice were subjected to identical procedures except that CLP was not done. 24 hours after CLP, all animals were scored for clinical illness severity as previously described (see Araujo C V, et al., Shock. 2016; 45 (4):393-403). In this assessment, higher scores reflect increased illness severity.

[5] = test system: platelets; experiment: P-selectin surface translocation on thrombin-activated platelets (flow cytometry); assay type: cell-based, human; conditions: thrombin 0.1 U/mL; peptide 1 nM
Description: FIG. 6E is a graph depicting surface translocation of P-selectin on platelets activated by thrombin (0.1 U/mL) that was measured by flow cytometry. The dashed line indicates surface P-selectin on unstimulated platelets.
(§1) P-selectin translocation and surface display by activated platelets (see van Velzen J F, et al., Thromb Res. 2012; 130 (1):92-8) and formation of platelet-neutrophil aggregates (see Evangelista V, et al., Blood. 1996; 88 (11):4183-94) were measured as described.

[6] = test system: activated human platelets and PMNs; experiment: Platelet-neutrophil aggregate formation; assay type: cell-based; conditions: thrombin 0.1 U/mL, LPS 100 ng/mL; peptide 1 nM
Description: FIG. 6F is a graph depicting formation of platelet-neutrophil aggregates that was measured after mixing of platelets activated with thrombin (0.1 U/mL) and neutrophils activated with LPS (100 ng/mL). The dashed line indicates control aggregate formation in response to LPS stimulation of the PMNs alone. *P<0.05 for CRISPP and CRISPP-SCR compared to control. FIGS. 6A-6F are a series of graphs depicting isolated adult neutrophils or platelets that were preincubated with buffer or with CRISPP, nNIF, or CRISPP-SCR (1 nM, 1 hour for each) followed by measurement of functional responses. A minimum of three separate assays were done for each response. Error bars=SEM. Tukey's post hoc testing was applied in FIGS. 6B, 6D, 6E, and 6F.
as §1

Substance | IL-8 induced chemotaxis [1] | nuclear histone H3 citrullination [2] | NE activity (substrate cleavage) [3] | clinical illness scores at 24 hours [4] | surface translocation of P-selectin by thrombin-stimulated platelets [5] | formation of heterotypic aggregates by activated platelets and PMNs [6]
KFNKPFVFLMIEQNTKSPLFMGKVVNPTQ (listed as Homo sapiens) [nNIF] | did not inhibit | inhibited | neither nNIF nor CRISPP inhibited NE activity; also recorded: not inhibited | lower | – | –
M_IPPEVKFNKPFVFLMIDQNTKVPLFMGK [CRISPP, consensus peptide based on factors present in the blood of patients with cancer] | did not inhibit | inhibited | neither nNIF nor CRISPP inhibited NE activity | – | does not inhibit | does not inhibit
